Converted amounts (≈) assume the structure as drawn.
Key:
Format in all cases: functional
[1] = system: Escherichia coli; experiment: Antimicrobial activity against Escherichia coli XL10/pSHV-31
[2] = system: Klebsiella pneumoniae; experiment: Antimicrobial activity against Klebsiella pneumoniae KPN15-NL
[3] = system: Escherichia coli; experiment: Antimicrobial activity against Escherichia coli XL10/vector

SMILES	MIC [1] [µg/mL]	MIC [2] [µg/mL]	MIC [3] [µg/mL]
CC1(C)S[C@@H]2[C@H](NC(=O)[C@H](N)c3ccc(O)cc3)C(=O)N2[C@H]1C(=O)O [AMOXICILLIN]	> 128	> 128	16 (≈ 43.8 µM)
CC1(C)S[C@@H]2[C@H](NC(=O)[C@H](N)c3ccccc3)C(=O)N2[C@H]1C(=O)O [AMPICILLIN]	> 128	> 128	–
C[C@H]1[C@H](NC(=O)/C(=N\OC(C)(C)C(=O)O)c2csc(N)n2)C(=O)N1S(=O)(=O)O [AZTREONAM]	> 128	> 128	0.12 (≈ 0.276 µM)
CO/N=C(\C(=O)N[C@@H]1C(=O)N2C(C(=O)[O-])=C(C[N+]3(C)CCCC3)CS[C@H]12)c1csc(N)n1 [CEFEPIME]	0.5 (≈ 1.04 µM)	1 (≈ 2.08 µM)	≤ 0.06
CO/N=C(\C(=O)N[C@@H]1C(=O)N2C(C(=O)O)=C(COC(C)=O)CS[C@H]12)c1csc(N)n1 [CEFOTAXIME]	4 (≈ 8.78 µM)	8 (≈ 17.6 µM)	≤ 0.06
CO[C@@]1(NC(=O)Cc2cccs2)C(=O)N2C(C(=O)O)=C(COC(N)=O)CS[C@@H]21 [CEFOXITIN]	1 (≈ 2.34 µM)	16 (≈ 37.4 µM)	1 (≈ 2.34 µM)
CC(C)(O/N=C(\C(=O)N[C@@H]1C(=O)N2C(C(=O)[O-])=C(C[n+]3ccccc3)CS[C@H]12)c1csc(N)n1)C(=O)O [CEFTAZIDIME]	32 (≈ 58.5 µM)	128 (≈ 234 µM)	0.12 (≈ 0.22 µM)
C[C@@H](O)[C@H]1C(=O)N2C(C(=O)O)=C(S[C@@H]3CN[C@H](C(=O)Nc4cccc(C(=O)O)c4)C3)[C@H](C)[C@H]12 [ERTAPENEM]	≤ 0.06	≤ 0.06	–
C[C@@H](O)[C@H]1C(=O)N2C(C(=O)O)=C(SCCNC=N)C[C@H]12 [IMIPENEM ANHYDROUS]	≤ 0.06	≤ 0.06	–
CCN1CCN(C(=O)N[C@@H](C(=O)N[C@@H]2C(=O)N3[C@@H]2SC(C)(C)[C@@H]3C(=O)O)c2ccccc2)C(=O)C1=O [PIPERACILLIN]	64 (≈ 124 µM)	> 128	1 (≈ 1.93 µM)

Reference: ChEMBL document CHEMBL1142078, “Detection of a new SHV-type extended-spectrum beta-lactamase, SHV-31, in a Klebsiella pneumoniae strain causing a large nosocomial outbreak in The Netherlands” (2007)
